Test results published in ChEMBL document CHEMBL1201862, “PubChem BioAssay data set” (2004).
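A five-concentration, 48-hour dose response in 96-well plates underlies each endpoint, interpolated linearly between surrounding concentrations. GI50 is the concentration that inhibits growth by half.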 The source made the active and inactive calls. No stated cut-off is given here; in the data, active = GI50 up to about 1.1 µM and inactive = higher.

Assays:
Assay in all cases: NCI tumour cell line growth inhibition, 48 h
[1] = tested on: CCRF-CEM
[2] = tested on: Malme-3M
[3] = tested on: SNB-75
[4] = tested on: HOP-62
[5] = tested on: EKVX
[6] = tested on: SF-268
[7] = tested on: SK-MEL-5
[8] = tested on: PC-3
[9] = tested on: SN12C
[10] = tested on: OVCAR-4
[11] = tested on: 786-0
[12] = tested on: SR
[13] = tested on: M14
[14] = tested on: NCI/ADR-RES
[15] = tested on: OVCAR-5
[16] = tested on: HL-60
[17] = tested on: HT-29
[18] = tested on: NCI-H522
[19] = tested on: CAKI-1
[20] = tested on: OVCAR-3
[21] = tested on: MOLT-4
[22] = tested on: MDA-MB-435
[23] = tested on: BT-549
[24] = tested on: ACHN
[25] = tested on: HOP-92
[26] = tested on: RPMI-8226
[27] = tested on: SNB-19
[28] = tested on: SF-539
[29] = tested on: SF-295
[30] = tested on: DU-145
[31] = tested on: MCF7
[32] = tested on: UO-31
[33] = tested on: MDA-N
[34] = tested on: Hs-578T
[35] = tested on: NCI-H460
[36] = tested on: HCT-116
[37] = tested on: T47D
[38] = tested on: K562
[39] = tested on: LOX IMVI
[40] = tested on: SK-MEL-2
[41] = tested on: U-251
[42] = tested on: HCC 2998
[43] = tested on: NCI-H226
[44] = tested on: SK-MEL-28
[45] = tested on: TK-10
[46] = tested on: COLO 205
[47] = tested on: UACC-257
[48] = tested on: SK-OV-3
[49] = tested on: A549
[50] = tested on: UACC-62
[51] = tested on: OVCAR-8
[52] = tested on: MDA-MB-231
[53] = tested on: IGROV-1
[54] = tested on: NCI-H23
[55] = tested on: RXF 393
[56] = tested on: KM12
[57] = tested on: SW-620
[58] = tested on: A498
[59] = tested on: HCT-15

How did the GI50 [1] turn out when C[C@@]1(CCCCCCCCCCc2ccccc2)C[C@@]2(C)OC(=O)C[C@H]2OO1 was run?
Its GI50 is 1.55 µM (inactive).

What about the GI50 [2] of the same compound?
The GI50 was 1.54 µM (inactive).

What about the GI50 [3] of the same compound?
The GI50 was 2.81 µM (inactive).

And the GI50 [4]?
Its GI50 is 1.57 µM (inactive).

And the GI50 [5]?
The GI50 was 2.52 µM (inactive).

What about the GI50 [6] of the same compound?
The GI50 was 1.8 µM (inactive).

What about the GI50 [7] of the same compound?
Its GI50 is 1.44 µM (inactive).

What about the GI50 [8] of the same compound?
Its GI50 is 1.77 µM (inactive).

And the GI50 [9]?
Its GI50 is 1.81 µM (inactive).

And the GI50 [10]?
The GI50 was 2.17 µM (inactive).

And the GI50 [11]?
The GI50 was 1.51 µM (inactive).

What about the GI50 [12] of the same compound?
Its GI50 is 1.88 µM (inactive).

What about the GI50 [13] of the same compound?
The GI50 was 1.51 µM (inactive).

And the GI50 [14]?
The GI50 was 1.68 µM (inactive).

And the GI50 [15]?
The GI50 was 1.76 µM (inactive).

And the GI50 [16]?
The GI50 was 399 nM (active).

What about the GI50 [17] of the same compound?
Its GI50 is 1.46 µM (inactive).

What about the GI50 [18] of the same compound?
Its GI50 is 1.72 µM (inactive).

And the GI50 [19]?
The GI50 was 30.3 µM (inactive).

And the GI50 [20]?
The GI50 was 1.79 µM (inactive).

And the GI50 [21]?
The GI50 was 1.69 µM (inactive).

And the GI50 [22]?
The GI50 was 1.81 µM (inactive).

What about the GI50 [23] of the same compound?
The GI50 was 0.479 µM (active).

And the GI50 [24]?
Its GI50 is 2.2 µM (inactive).

And the GI50 [25]?
Its GI50 is 769 nM (active).

And the GI50 [26]?
The GI50 was 1.85 µM (inactive).

What about the GI50 [27] of the same compound?
The GI50 was 2.26 µM (inactive).

What about the GI50 [28] of the same compound?
The GI50 was 1.57 µM (inactive).

What about the GI50 [29] of the same compound?
Its GI50 is 1.82 µM (inactive).

What about the GI50 [30] of the same compound?
The GI50 was 2.77 µM (inactive).

And the GI50 [31]?
The GI50 was 1.56 µM (inactive).

And the GI50 [32]?
Its GI50 is 1.89 µM (inactive).

And the GI50 [33]?
The GI50 was 1.99 µM (inactive).

What about the GI50 [34] of the same compound?
The GI50 was 2.47 µM (inactive).

What about the GI50 [35] of the same compound?
Its GI50 is 1.96 µM (inactive).

What about the GI50 [36] of the same compound?
Its GI50 is 1.45 µM (inactive).

What about the GI50 [37] of the same compound?
Its GI50 is 2.49 µM (inactive).

What about the GI50 [38] of the same compound?
The GI50 was 1.68 µM (inactive).

What about the GI50 [39] of the same compound?
Its GI50 is 2.05 µM (inactive).

And the GI50 [40]?
The GI50 was 20.9 µM (inactive).

And the GI50 [41]?
Its GI50 is 1.55 µM (inactive).

What about the GI50 [42] of the same compound?
The GI50 was 1.66 µM (inactive).

And the GI50 [43]?
Its GI50 is 3.1 µM (inactive).

What about the GI50 [44] of the same compound?
Its GI50 is 2.07 µM (inactive).

And the GI50 [45]?
Its GI50 is 2.83 µM (inactive).

What about the GI50 [46] of the same compound?
The GI50 was 1.7 µM (inactive).

And the GI50 [47]?
The GI50 was 2.12 µM (inactive).

And the GI50 [48]?
Its GI50 is 2.48 µM (inactive).

What about the GI50 [49] of the same compound?
The GI50 was 2.76 µM (inactive).

And the GI50 [50]?
The GI50 was 1.8 µM (inactive).

What about the GI50 [51] of the same compound?
The GI50 was 1.43 µM (inactive).

And the GI50 [52]?
Its GI50 is 1.67 µM (inactive).

What about the GI50 [53] of the same compound?
The GI50 was 1.75 µM (inactive).

What about the GI50 [54] of the same compound?
The GI50 was 1.55 µM (inactive).

And the GI50 [55]?
Its GI50 is 1.93 µM (inactive).

What about the GI50 [56] of the same compound?
Its GI50 is 1.81 µM (inactive).

What about the GI50 [57] of the same compound?
Its GI50 is 1.68 µM (inactive).

And the GI50 [58]?
The GI50 was 19.7 µM (inactive).

And the GI50 [59]?
The GI50 was 1730 nM.

CC1C(C#N)(C#N)C(C#N)=C(N)C1(Cl)[N+](=O)[O-] (stereo unspecified) was tested. Which GI50 [1] did it give?
Its GI50 is 2.18 µM (inactive).

What about the GI50 [2] of the same compound?
Its GI50 is 5.71 µM (inactive).

And the GI50 [3]?
Its GI50 is 11.7 µM (inactive).

What about the GI50 [4] of the same compound?
The GI50 was 3.08 µM (inactive).

What about the GI50 [5] of the same compound?
Its GI50 is 17.8 µM (inactive).

What about the GI50 [6] of the same compound?
Its GI50 is 14.9 µM (inactive).

And the GI50 [7]?
The GI50 was 12.1 µM (inactive).

What about the GI50 [8] of the same compound?
Its GI50 is 17.7 µM (inactive).

And the GI50 [9]?
Its GI50 is 8.18 µM (inactive).

What about the GI50 [10] of the same compound?
Its GI50 is 12.8 µM (inactive).

What about the GI50 [11] of the same compound?
The GI50 was 5.48 µM (inactive).

And the GI50 [12]?
The GI50 was 5.01 µM (inactive).

And the GI50 [13]?
The GI50 was 5.07 µM (inactive).

And the GI50 [14]?
The GI50 was 16 µM (inactive).

And the GI50 [15]?
Its GI50 is 14.9 µM (inactive).

And the GI50 [16]?
Its GI50 is 2370 nM (inactive).

And the GI50 [17]?
Its GI50 is 9.04 µM (inactive).

And the GI50 [18]?
Its GI50 is 2.3 µM (inactive).

And the GI50 [19]?
Its GI50 is 5.4 µM (inactive).

What about the GI50 [20] of the same compound?
Its GI50 is 10 µM (inactive).

And the GI50 [21]?
Its GI50 is 1.72 µM (inactive).

And the GI50 [22]?
Its GI50 is 16.7 µM (inactive).

And the GI50 [23]?
Its GI50 is 13.3 µM (inactive).

What about the GI50 [24] of the same compound?
Its GI50 is 11.3 µM (inactive).

And the GI50 [25]?
Its GI50 is 2080 nM (inactive).

What about the GI50 [26] of the same compound?
The GI50 was 11.2 µM (inactive).

And the GI50 [27]?
Its GI50 is 19.3 µM (inactive).

And the GI50 [28]?
Its GI50 is 11.5 µM (inactive).

What about the GI50 [29] of the same compound?
The GI50 was 18.8 µM (inactive).

What about the GI50 [30] of the same compound?
The GI50 was 16.7 µM (inactive).

What about the GI50 [31] of the same compound?
The GI50 was 17.2 µM (inactive).

And the GI50 [32]?
Its GI50 is 15.5 µM (inactive).

What about the GI50 [33] of the same compound?
The GI50 was 9.04 µM (inactive).

And the GI50 [34]?
Its GI50 is 16.1 µM (inactive).

What about the GI50 [36] of the same compound?
Its GI50 is 7.19 µM (inactive).

What about the GI50 [37] of the same compound?
Its GI50 is 15.7 µM (inactive).

What about the GI50 [38] of the same compound?
Its GI50 is 2.88 µM (inactive).

What about the GI50 [39] of the same compound?
Its GI50 is 5.32 µM (inactive).

And the GI50 [40]?
The GI50 was 25.6 µM (inactive).

What about the GI50 [41] of the same compound?
The GI50 was 17.1 µM (inactive).

And the GI50 [42]?
The GI50 was 17.3 µM (inactive).

And the GI50 [43]?
Its GI50 is 17.1 µM (inactive).

What about the GI50 [45] of the same compound?
The GI50 was 14.9 µM (inactive).

And the GI50 [46]?
Its GI50 is 4.9 µM (inactive).

What about the GI50 [47] of the same compound?
Its GI50 is 12 µM (inactive).

And the GI50 [48]?
Its GI50 is 17 µM (inactive).

What about the GI50 [49] of the same compound?
Its GI50 is 21.7 µM (inactive).

What about the GI50 [50] of the same compound?
The GI50 was 11.4 µM (inactive).

What about the GI50 [51] of the same compound?
Its GI50 is 14.9 µM (inactive).

What about the GI50 [52] of the same compound?
Its GI50 is 13.2 µM (inactive).

And the GI50 [53]?
The GI50 was 7.45 µM (inactive).

And the GI50 [54]?
The GI50 was 18.7 µM (inactive).

And the GI50 [55]?
Its GI50 is 4.33 µM (inactive).

What about the GI50 [56] of the same compound?
The GI50 was 18.7 µM (inactive).

What about the GI50 [57] of the same compound?
The GI50 was 2.17 µM (inactive).

And the GI50 [58]?
Its GI50 is 17.4 µM (inactive).

What about the GI50 [59] of the same compound?
The GI50 was 3390 nM.
